Data: patent publication US9169241B2, “Quinolinyloxyphenylsulfonamides” (Max-Planck-Gesellschaft Zur Forderung der Wissenschaften …, priority 2009, dated 2015)
Where two headings read alike, the source gives them in different places. Each block holds one molecule with its values, some of them ahead of it.

Experiments:
indicated cell line = assay: Wound healing migration assay (Table IV); type: cell-based; conditions: compounds at 12.5, 6.25, 3.125 μM, 48 h-72 h
Summary of the method: (§1)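 Cells seeded at 150000/24 well, grown to monolayer overnight, scratched with a pipette tip, then treated with compound at 12.5, 6.25 or 3.125 μM versus DMSO. Stopped by crystal violet fixation at 48-72 h once control wounds closed; IC50 taken as 50% wound size between t0 and t48 or t72.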

Hs578T [1] = assay: Wound healing migration assay; type: cell-based; conditions: Homo sapiens, Hs-578T; HS578T cell line; Table Ib
Summary of the method: as §1

SF126 [2] = assay: Cell vitality assay (ATP assay, CellTiter-Glo); type: cell-based; conditions: Homo sapiens, SF-126; SF126, 72 h; Table IIa; read-out: IC50 ATP-Assay after 72 h SF126
Summary of the method: (§2)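 Steps: seed 1000 cells per well; add compound (0.195–12.5 μM, 7 points) or DMSO; incubate 72 h; equilibrate to room temperature ~30 min; add reagent, shake 2 min, stand 10 min; read luminescence. IC50 relative to DMSO-control ATP.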

U118 [3] = assay: Cell vitality assay (ATP assay, CellTiter-Glo); type: cell-based; conditions: U118, 72 h; Table IIa; read-out: IC50 ATP-Assay after 72 h U118
Summary of the method: as §2

A172 [4] = assay: Cell vitality assay (ATP assay, CellTiter-Glo); type: cell-based; conditions: Homo sapiens, A 172; A172, 72 h; Table IIa; read-out: IC50 ATP-Assay after 72 h A172
Summary of the method: as §2

Hs578T [5] = assay: Cell vitality assay (ATP assay, CellTiter-Glo); type: cell-based; conditions: Homo sapiens, Hs-578T; HS578T cell line, 72 h; Table Ib; read-out: IC50 ATP-Assay HS578T after 72 h
Summary of the method: as §2

SF126 [6] = assay: Matrigel outgrowth assay/branching assay; type: cell-based; conditions: Homo sapiens, SF-126, Table Vb, read-out: Total branching inhibition in Matrigel SF126
Summary of the method: (§3)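 Cells (5000/well) were seeded onto polymerized 3 mg/ml Matrigel with compound at 3.125, 1.56 or 0.78 μM, or DMSO. Imaging by inverted microscopy at 48, 72 and 96 h scored invasive branching. Only concentrations giving total branching inhibition counted as positive.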

U118 [7] = assay: Matrigel outgrowth assay/branching assay; type: cell-based; conditions: Table Vb, read-out: Total branching inhibition in Matrigel U118
Summary of the method: as §3

A172 [8] = assay: Matrigel outgrowth assay/branching assay; type: cell-based; conditions: Homo sapiens, A 172, Table Vb, read-out: Total branching inhibition in Matrigel A172
Summary of the method: as §3

Hs578T [9] = assay: Matrigel outgrowth assay/branching assay; type: cell-based; conditions: Homo sapiens, Hs-578T; HS578T cell line; Table Ib; read-out: Total branching inhibition in Matrigel HS578T
Summary of the method: as §3

viable cells in culture = assay: Cell viability assay at 10 μM (CellTiter-Glo, Table VII); type: cell-based; conditions: compound 10 μM, 72 h;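 note: graded A 0-20%; B 21-40%; C 41-60%; D over 60% viable cells relative to DMSO control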
Summary of the method: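 Viable cell number was measured with the CellTiter-Glo Luminescent Cell Viability Assay (Promega), following the manufacturer's protocol, which quantifies ATP as a marker of metabolically active cells. In 96-well plates, 1000 cells/well in 100 μl medium were exposed to compound at 10 μM, or to DMSO control, for 72 h. Values were calculated relative to DMSO-control ATP.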

cells = assay: Boyden chamber migration assay (Table VI); type: cell-based; conditions: Homo sapiens, Hs-578T, 16 h, Hs578T cells; 16 h migration
Summary of the method: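 20000 cells seeded in the upper compartment in 0% FCS plus 0.1% BSA and left 16 h to migrate through […] membrane toward 10% FCS medium below. Non-migrated cells swabbed off; cells on the filter underside fixed and counted.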

tumor cell = assay: Matrigel outgrowth assay/branching assay (Table Va); type: cell-based
Summary of the method: as §3

SF126 [10] = assay: Apoptosis assay (Cellomics, nucleus condensation); type: cell-based; conditions: Homo sapiens, SF-126, Table III, read-out: Apoptosis induction in SF126
Summary of the method: (§4)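 Cells at 5000 per well were stained live with Hoechst 33342 and imaged on an automated fluorescence microscope after 24 h and 48 h compound exposure (12.5 μM down to 0.39 μM, twofold steps; DMSO control). Per-nucleus intensity variation quantified nuclear condensation; cell counts were also recorded.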

SF763 = assay: Apoptosis assay (Cellomics, nucleus condensation); type: cell-based; conditions: Table III, read-out: Apoptosis induction in SF763
Summary of the method: as §4

C8161 = assay: Apoptosis assay (Cellomics, nucleus condensation); type: cell-based; conditions: Homo sapiens, Table III, read-out: Apoptosis induction in C8161
Summary of the method: as §4

U138 = assay: Apoptosis assay (Cellomics, nucleus condensation); type: cell-based; conditions: Table III, read-out: Apoptosis induction in U138
Summary of the method: as §4

U118 [11] = assay: Apoptosis assay (Cellomics, nucleus condensation); type: cell-based; conditions: Table III, read-out: Apoptosis induction in U118
Summary of the method: as §4

Hs578T [12] = assay: Apoptosis assay (Cellomics, nucleus condensation); type: cell-based; conditions: Homo sapiens, Hs-578T, Table III, read-out: Apoptosis induction in Hs578T
Summary of the method: as §4

[13] = Homo sapiens, A 172, A172 cells, read-out: IC50 Wound healing Assay A172
[14] = Homo sapiens, SF-126, SF126 cells, read-out: IC50 Wound healing Assay SF126
[15] = U118 cells, read-out: IC50 Wound healing Assay U118

Compound: COc1cc2c(Oc3ccc(NS(=O)(=O)c4cc(F)ccc4F)cc3F)ccnc2cc1OCCCN1CCCCC1C (stereo not drawn) [Example 151, 2,5-Difluoro-N-(3-fluoro-4-{6-methoxy-7-[3-(2-methyl-piperidin-1-yl)-propoxy]-quinolin-4-yloxy}-phenyl)-benzenesulfonamide]
IC50 (indicated cell line; [13]): ≤ 12.5 µM
IC50 (indicated cell line; [14]): ≤ 12.5 µM
IC50 (indicated cell line; [15]): ≤ 12.5 µM
IC50 (Hs578T [1]): ≤ 12.5 µM
IC50 (SF126 [2]): ≤ 12.5 µM
IC50 (U118 [3]): ≤ 12.5 µM
IC50 (A172 [4]): ≤ 12.5 µM
IC50 (Hs578T [5]): ≤ 12.5 µM
melting point: 120 to 122 °C
IC100 (SF126 [6]): ≤ 12.5 µM
IC100 (U118 [7]): ≤ 12.5 µM
IC100 (A172 [8]): ≤ 12.5 µM
IC50 (Hs578T [9]): ≤ 10 µM

IC50 (indicated cell line; Homo sapiens, C8161 cells, read-out: IC50 Wound healing Assay C8161): ≤ 12.5 µM
IC50 (indicated cell line; SF763 cells, read-out: IC50 Wound healing Assay SF763): ≤ 12.5 µM
IC50 (cells): ≤ 5 µM
melting point: 73 to 75 °C
IC50 (tumor cell; Homo sapiens, C8161 cells, read-out: Total branching inhibition in Matrigel C8161): ≤ 5 µM
IC50 (tumor cell; Homo sapiens, Hs-578T, Hs578T cells, read-out: Total branching inhibition in Matrigel Hs578T): 5 to 50 µM
IC50 (tumor cell; U118 cells, read-out: Total branching inhibition in Matrigel U118): ≤ 5 µM
IC50 (tumor cell; U138 cells, read-out: Total branching inhibition in Matrigel U138): ≤ 5 µM
IC50 (SF126 [10]): ≤ 12.5 µM
IC50 (SF763): ≤ 12.5 µM
IC50 (C8161): ≤ 12.5 µM
IC50 (U138): ≤ 12.5 µM
IC50 (U118 [11]): ≤ 12.5 µM
IC50 (Hs578T [12]): ≤ 12.5 µM
Compound: COc1cc2c(Oc3ccc(NS(=O)(=O)c4ccccc4C)cc3F)ccnc2cc1OCCCN1CCN(C)CC1 [Example 28, N-(3-Fluoro-4-{6-methoxy-7-[3-(4-methyl-piperazin-1-yl)-propoxy]-quinolin-4-yloxy}-phenyl)-2-methyl-benzenesulfonamide]
viability at 10 µM (viable cells in culture; Homo sapiens, HCT-116, HCT116 def, read-out: percentage (%) of viable cells HCT 116def): 21 to 40%
viability at 10 µM (viable cells in culture; Homo sapiens, HCT-116, HCT116 wt, read-out: percentage (%) of viable cells HCT 116wt): 21 to 40%
viability at 10 µM (viable cells in culture; Homo sapiens, HT-29, HT29, read-out: percentage (%) of viable cells HT29): 21 to 40%
viability at 10 µM (viable cells in culture; Homo sapiens, NCI-H358, H358, read-out: percentage (%) of viable cells H358): 0 to 20%
viability at 10 µM (viable cells in culture; Homo sapiens, NCI-H1650, H1650, read-out: percentage (%) of viable cells H1650): 21 to 40%
viability at 10 µM (viable cells in culture; Homo sapiens, NCI-H1666, H1666, read-out: percentage (%) of viable cells H1666): 41 to 60%
viability at 10 µM (viable cells in culture; Homo sapiens, NCI-H1975, H1975, read-out: percentage (%) of viable cells H1975): 21 to 40%
viability at 10 µM (viable cells in culture; Homo sapiens, NCI-H1993, H1993, read-out: percentage (%) of viable cells H1993): 21 to 40%
viability at 10 µM (viable cells in culture; Homo sapiens, A549, read-out: percentage (%) of viable cells A549): 21 to 40%
viability at 10 µM (viable cells in culture; Homo sapiens, HCC827, read-out: percentage (%) of viable cells HCC827): 21 to 40%
viability at 10 µM (viable cells in culture; Homo sapiens, SW480, read-out: percentage (%) of viable cells SW480): 0 to 20%
viability at 10 µM (viable cells in culture; RKO, read-out: percentage (%) of viable cells RKO): 0 to 20%
IC50 (Hs578T [9]): 10 to 25 µM

Compound: COc1cc2c(Oc3ccc(NS(=O)(=O)c4cc(F)ccc4F)cc3F)ccnc2cc1OCCCN(C)C [Example 177, N-{4-[7-(3-Dimethylamino-propoxy)-6-methoxy-quinolin-4-yloxy]-3-fluoro-phenyl}-2,5-difluoro-benzenesulfonamide]
IC50 (indicated cell line; [13]): ≤ 12.5 µM
IC50 (indicated cell line; [14]): ≤ 12.5 µM
IC50 (indicated cell line; [15]): ≤ 12.5 µM
IC50 (Hs578T [1]): ≤ 12.5 µM
IC50 (SF126 [2]): ≤ 12.5 µM
IC50 (U118 [3]): ≤ 12.5 µM
IC50 (A172 [4]): ≤ 12.5 µM
IC50 (Hs578T [5]): ≤ 12.5 µM
melting point: 108 to 110 °C
IC100 (SF126 [6]): ≤ 12.5 µM
IC100 (U118 [7]): ≤ 12.5 µM
IC100 (A172 [8]): ≤ 12.5 µM
IC50 (Hs578T [9]): ≤ 10 µM

Compound: COc1cc2c(Oc3ccc(NS(=O)(=O)c4ccccc4C(F)(F)F)cc3F)ccnc2cc1OCCCN1CCCCC1 [Example 4, N-{3-Fluoro-4-[6-methoxy-7-(3-piperidin-1-yl-propoxy)-quinolin-4-yloxy]-phenyl}-2-trifluoromethyl-benzenesulfonamide]
IC50 (indicated cell line; [13]): ≤ 12.5 µM
IC50 (indicated cell line; [14]): ≤ 12.5 µM
IC50 (indicated cell line; [15]): ≤ 12.5 µM
IC50 (Hs578T [1]): ≤ 12.5 µM
IC50 (SF126 [2]): ≤ 12.5 µM
IC50 (U118 [3]): ≤ 12.5 µM
IC50 (A172 [4]): ≤ 12.5 µM
IC50 (Hs578T [5]): ≤ 12.5 µM
melting point: 173 to 175 °C
IC100 (SF126 [6]): ≤ 12.5 µM
IC100 (U118 [7]): ≤ 12.5 µM
IC100 (A172 [8]): > 12.5 µM
IC50 (Hs578T [9]): ≤ 10 µM
